The test system of one series is p-ERK in AGS cells. Put plainly: Inhibition of p-ERK in AGS cells (LANCE Ultra phospho-ERK1/2 kit). In kind it is cell-based. The following applies: Homo sapiens; AGS cells, 2 h with compound; read-out: AGS_pERK IC50. As to the method:
1. Experimental objective: The inhibition activity of the example compounds on the phosphorylated ERK level in KRAS G12D mutant cells AGS was determined. 2. Experimental instruments: • 2.1 Instruments: Envison; Pipette (Eppendorf & Rainin) • 2.2 Reagents: AGS cells were purchased from COBIOER BIOSCIENCES CO., LTD, with a catalog number of CBP60476; Phosphorylated ERK1/2 (T202-Y204) LANCE Ultra Cellular Detection Kit was purchased from PerkinElmer, with a catalog number of TRF4000M; RPMI 1640 was purchased from Gibco, with a catalog number of 22400071; FBS was purchased from Gibco, with a catalog number of 10091148; PBS was purchased from Gibco, with a catalog number of 10010023; trypsin was purchased from Gibco, with a catalog number of 25200056; cell culture plates were purchased from Corning Company, with a catalog number of 3610; White opaque OptiPlate™-384 plates were purchased from PerkinElmer, with a catalog number of 6007290. 3. Experimental method: When AGS cells were cultured to appropriate confluence, the AGS cells were collected, and the cell density was adjusted to 4 × 10^5/mL using complete culture medium. The cell suspension was plated onto a 96-well plate at 100 µL per well, and the plate was placed in the incubator at 37°C and 5% CO2 for adherent culture overnight. Solutions of the compound with different concentrations were formulated using DMSO and complete culture medium, and a vehicle control was set up. The solutions of the compound were added to the 96-well plate at 25 µL per well, and the plate was placed in the incubator at 37°C and 5% CO2 for further culture for 2 h. Then, the supernatant of the cell culture plate was discarded, 50 µL of lysis buffer was added to each well, the cells were lysed at room temperature under shaking for 30 min, then placed in a centrifuge and centrifuged at 1000 rpm for 1 min. 15 µL of supernatant was transferred to a 384-well plate, 5 µL of detection mixture was added to each well (Eu-labeled anti-ERK1/2 (T202-Y204) Antibody at a final detection concentration of 0.5 nM and ULight labeled anti-ERK1/2 Antibody at a final detection concentration of 5 nM), centrifuged at 1000 rpm for 1 min, mixed evenly, and reacted at room temperature overnight. The plate was read using Envison and the signal values at the emission wavelengths of 620 nm and 665 nm were detected using a time-resolved fluorescence program. 4. […] Graphpad Prism software was used to fit the concentration and inhibition rate to a nonlinear regression curve, so as to obtain the IC50 value. Table 5: Inhibition activity of the compounds on p-ERK in AGS cells

Another series deals with GP2D. Put plainly: Inhibition of proliferation of KRAS G12D mutant tumor cell line GP2D (CellTiter-Glo). The settings on record: Homo sapiens, GP2d, 72 h, read-out: GP2D IC50.
The test system of the next series is AsPC-1. Put plainly: Inhibition of proliferation of KRAS G12D mutant tumor cell line AsPC-1 (CellTiter-Glo). Type of series: cell-based. The settings on record: Homo sapiens, ASPC1, about 72 h. The procedure:
1. Experimental objective: The inhibition activity of the example compounds on the proliferation of 5 KRAS G12D mutant cell lines SNU-1, HPAF-II, Panc0403, AsPC-1 and GP2D was determined. 2. Experimental instruments: • 2.1 Instruments: Microplate reader (BioTek Synergy H1); Pipette (Eppendorf & Rainin). • 2.2 Reagents: HPAF-II, PANC0403, AsPC-1 and GP2D were purchased from COBIOER BIOSCIENCES CO., LTD; SNU-1 was purchased from the cell bank of Chinese Academy of Sciences, Cell Titer-Glo was purchased from Promega, with a catalog number of G7573; RPMI 1640 was purchased from Gibco, with a catalog number of 22400089; DMEM was purchased from Gibco, with a catalog number of 11995065; FBS was purchased from Gibco, with a catalog number of 10091148; PBS was purchased from Gibco, with a catalog number of 10010023; trypsin was purchased from Gibco, with a catalog number of 25200056; cell culture plates were purchased from Corning Company, with a catalog number of 3610. 3. Experimental method: When SNU-1, HPAF-II, Panc0403, AsPC-1 or GP2D cells were cultured to the appropriate confluence, and the SNU-1, HPAF-II, Panc0403, AsPC-1 or GP2D cells were collected. The cells were adjusted to the appropriate cell density using complete culture medium, the cell suspension was plated onto a 96-well plate at 90 µL per well, and the plate was placed in the incubator at 37°C and 5% CO2 for adherent culture overnight. Solutions of the compound with different concentrations were formulated using DMSO and culture medium. A vehicle control was set up. The solutions of the compound were added to the 96-well plate at 10 µL per well, and the plate was placed in the incubator at 37°C and 5% CO2 for further culture for about 72 h. Then, CellTiter-Glo solution was added, and the obtained mixture was shaken and mixed evenly, incubated in the dark for 10 min, and read with a BioTek Synergy H1 microplate reader. 4. Experimental data processing method: The luminescence signal value was used to calculate the inhibition rate. Graphpad Prism software was used to fit the concentration and inhibition rate to a nonlinear regression curve, so as to obtain the IC50 value. 5. Experimental results: Table 2: Determination of the inhibition activity of the compounds on the proliferation of KRAS G12D mutant tumor cell line GP2D

Series [1] can be described thus: Pharmacokinetic determination in mice (IV and PO, plasma, LCMS/MS). Type of series: in vivo, Balb/c mice. The settings on record: mouse, in vivo, PO, 30 mg/kg, male Balb/c mice, overnight fasting, plasma. The text has this:
• 1. Study objective: Balb/c mice were used as test animals to study the pharmacokinetic behavior of the compounds in mice (plasma) after oral administration. • 2. Test scheme • 2.1 Test drugs: The example compounds of the present invention, made in house; • 2.2 Test animals: Balb/c mice, male, purchased from Shanghai Jiesijie Experimental Animal Co., Ltd., animal production license number (SCXK (Shanghai) 2013-0006 N0.311620400001794). • 2.3 Drug formulation: Formulation of a drug for oral administration: 10% Captisol in 50 mM citrate buffer pH 5.0.
Formulation of 50 mM citric acid: 4.8 g of citric acid was weighed into a 1000 ml glass bottle, ultrapure water was added to 300 ml, and the mixture was magnetically stirred until completely dissolved, additional ultrapure water was then added to 500 ml to formulate 50 mM citric acid.
Formulation of a solution containing 50 mM citric acid (10% Captisol, PH = 5): 50 g of Captisol powder was weighed and added to a 1000 ml glass bottle, 300 ml of 50 mM citric acid was added, and the mixture was magnetically stirred until completely dissolved, then additional citric acid was added to 500 ml, and the PH was adjusted to 5 using 10 M NaOH.
The example compounds were weighed and added to a 4 mL glass bottle separately, 2.4 mL of the solution was added and the mixture was subjected to ultrasound treatment for 10 min to obtain a colorless clear solution with a concentration of 3 mg/mL.
Formulation of a drug for intravenous administration: 5%DMSO+10%Solutol HS15+85%PBS.
The example compounds were weighed, and 5% DMSO was added according to the total administration volume; the mixture was vortexed and sonicated for 2 min to ensure complete dissolution; then, 10% Solutol HS15 was added, and the mixture was vortexed and sonicated for 2 min to achieve complete dissolution; finally, 85% PBS was added, and the mixture was vortexed and sonicated for 5 min; the obtained mixture was filtered through a 0.22 um membrane to obtain a colorless, transparent, and clear solution with a concentration of 0.2 mg/mL.
3 Balb/c mice, male; After overnight fasting, the animals were administered orally (PO) at a dose of 30 mg/kg with an administration volume of 10 mL/kg.
3 Balb/C mice, male; After overnight fasting, the animals were administered intravenously (IV) at a dose of 1 mg/kg with an administration volume of 5 mL/kg.
0.04 mL of blood was collected from the orbit before administration and at 0.25 h, 0.5 h, 1 h, 2 h, 4 h, 6 h, 8 h, and 24 h after administration and placed in an EDTA-2K test tube, and the test tube was centrifuged at 6000 rpm for 6 min at 4°C to separate the plasma, which was stored at -20°C; the animals were fed 4 h after administration.
The final determination results obtained by applying the LCMS/MS method are shown in the table below: Table 6: Pharmacokinetic parameters of the compounds administered intravenously in mice

For series [2], the system named is human colorectal cancer cell line (GP2D). Put plainly: Anti-tumor efficacy in mouse transplanted tumor model of human colorectal cancer cell line (GP2D). In kind it is in vivo, mice (BALB/c nude). The following applies: 100mpk, PO*BID. The text has this:
8-10 week old female conventional immunodeficient mice (BALB/c nude) with a body weight of 18 g-22 g were used as experimental animals, and a transplanted tumor model of human colorectal cancer cell line (GP2D) was used to conduct in vivo efficacy experiments to test the anti-tumor results of the example compounds after gavage administration.
The example compounds of the present invention, made in house.
A certain amount of the example compound was weighed, and an appropriate amount of 10% vehicle (Solutol HS15) was added. The mixture was stirred on a magnetic stirrer for 0.5 h to formulate a homogeneous suspension at the desired concentration.
The human colorectal cancer cell line (GP2D) was derived from COBIOER BIOSCIENCES CO., LTD, cultured on DMEM medium (Gibco, 11995-065) supplemented with 10% fetal calf serum (Gibco, 10091-148) and 1% penicillin/streptomycin (Gibco, 15140-122) and observed under a microscope (Thermo Fisher, 311). The cells were routinely passaged when the cells reached 80%-90% confluence in the culture flask. The passaged cells were cultured in a 37°C, 5% CO2 incubator (Thermo Fisher, 311).
Under aseptic conditions, human colorectal cancer cells (GP2D) in the logarithmic growth phase were harvested using 0.25% trypsin-EDTA (Gibco, 25200-056), washed and resuspended with phosphate buffer. The cell suspension was mixed with Matrigel (Corning, 356234) at a 1 : 1 ratio (v/v) and implanted subcutaneously into the right anterior dorsal region of immunodeficient mice (BALB/c nude). Each mouse was inoculated with 5*10^6 cells in a volume of 100 microliters (µL). After inoculation, when the tumor volume reached 100-200 mm^3, the mice would be evenly randomized into 5 groups based on the tumor size, with 5 mice per group, for in vivo efficacy experiments. The positive control group was the compound MRTX-1133, and the negative control group was the vehicle group.
Mode of administration: The positive control group was intraperitoneally injected, and the example compounds were administered orally.
Twice a week, the long and short diameters of the tumor were measured using a vernier caliper, and the tumor volume (mm^3) was calculated using the formula: V = 0.5*D*d*d, where D and d are the long and short diameters of the tumor, respectively. The anti-tumor efficacy was determined by dividing the average increase in tumor volume of compound-treated animals by the average increase in tumor volume of untreated animals. The calculation formula for tumor inhibition rate was: When there is no tumor regression, TGI(%) = 100-[(Vt-V0) administration group/(Vt-V0) vehicle control group]*100%. When tumor regression occurs, TGI(%) = [1-(V1-V0) administration group/V0 vehicle control group]* 100%. All animals were euthanized after the experiment.

Counter-ions that a name gives are not always drawn.

Take `[2H]C([2H])([2H])[C@@H]1Oc2nc(-c3cc(O)cc4ccc(F)c(C#C)c34)c(F)c3nc(OCC4(CN5CCC(=NOC)CC5)CC4)nc(c23)N2C[C@H]3CC[C@H](N3)[C@@H]12` [Example 338, 1-((1-((((5S,5aS,6S,9R)-2-(8-ethynyl-7-fluoro-3-hydroxynaphthalen-1-yl)-1-fluoro-5-deuteratedmethyl-5a,6,7,8,9,10-hexahydro-5H-4-oxa-3,10a,11,13, 14-pentaaza-6,9-methylenenaphtho[1,8-ab]heptalen-12-yl)oxo)methyl)cyclopropyl)methyl)piperidin-4-one O-methyloxime formate]: the values for the IC50 with p-ERK in AGS cells and in the series with GP2D were 2.8 nM and 0.34 nM, respectively.

Regarding `C#Cc1c(F)ccc2cc(O)cc(-c3nc4c5c(nc(OCC6(CN7CCC(=CF)C7)CC6)nc5c3F)N3C[C@H]5CC[C@H](N5)[C@H]3[C@H](C)O4)c12` [Example 131], in the series on AsPC-1, the IC50 worked out at 5 nM. For the same compound, the AUC(0-inf) in series [1] (read-out: AUC0-∞) was 559 ng·h/mL. Besides, the Cmax in series [1] (read-out: Cmax) was 151 ng/mL. Besides, the half-life in series [1] (read-out: T1/2 (converted)) is 18.3 h. Further, the Tmax in series [1] (read-out: Tmax) was determined as 1 h. The “Tumor volume (mm^3, Mean ± SD) Day 0” value in series [2] (Day 0) was determined as 167 mm^3. Further, in series [2] (Day 14), the “TGI(%) Day 14” value is given as 127.11%; the “Tumor volume (mm^3, Mean ± SD) Day 14” value amounted to 122 mm^3; the “ΔT/ΔC(%) Day 14” value was determined as 15.42%. Further, the IC50 with GP2D was 0.17 nM.
